What was measured:
[1] = test system: gastric ulcers, provoked in a rat by tying of the pylorus (Shay ulcers); experiment: Antiulcerous: reduction of Shay ulcers (tying of the pylorus); assay type: in vivo; conditions: 50 mg/Kg/i.d.
Procedure: The compounds of formula (I) administered by intraduodenal means reduce the extent of gastric ulcers, provoked in a rat by tying of the pylorus (Shay ulcers).
By way of example, there is listed in the following Table IX, the results obtained by the administrations of 50 mg/Kg/i.d. of different compounds of formula (I).

[2] = Lethal doses / percentage mortality, oral; assay type: in vivo; conditions: 2 000 mg/Kg/p.o., 2000 mg/kg
Description: As a result of a comparison between the pharmacologically active doses mentioned above and the lethal doses listed in the following Table XII, the difference between said doses is sufficiently great to permit the utilisation of the compounds of formula (I) in therapeutics.

[3] = test system: explorations in the escape enclosure; experiment: Sedative: reduction of number of explorations in the escape enclosure; assay type: in vivo; conditions: 100 mg/Kg/p.o., mouse
Procedure: The compounds of formula (I), administered by oral means to the mouse, reduce the number of explorations in the escape enclosure.
By way of example, the following Table VIII lists the results obtained by the administration of 100 mg/Kg/p.o. of different compounds of formula (I).

[4] = test system: oedema caused by the sub-plantar injection of carraghenin; experiment: Antiinflammatory: reduction of sub-plantar oedema caused by carraghenin, rat; assay type: in vivo; conditions: 100 mg/Kg/p.o.
Procedure: These properties are shown by a diminution of the local oedema caused by the sub-plantar injection of a phlogogenic agent, such as carraghenin, in the rat following the oral administration of compounds of formula (I).
The following Table VI lists, by way of example, the percentage reduction of the oedems caused by the sub-plantar injection of carraghenin, resulting from the administration of 100 mg/Kg/p.o. of different compounds of formula (I).

[5] = test system: painful stretchings caused by the intraperitoneal injection of acetic acid; experiment: Analgesic: reduction of painful stretchings caused by intraperitoneal acetic acid, oral, mouse; assay type: in vivo; conditions: 100 mg/Kg/p.o.
Procedure: The compounds of formula (I), administered by oral means to the mouse, are capable of reducing the number of painful stretchings caused by the intraperitoneal injection of acetic acid.
By way of example, the following Table III lists the results obtained by administration of 100 mg/Kg/p.o. of different compounds of formula (I).

[6] = test system: bronchoconstriction provoked in the guinea-pig by acetylcholine; experiment: Antibronchoconstrictive and anticholinergic: bronchoconstriction by intravenous acetylcholine, Konzett method; assay type: in vivo; conditions: 100 mg/kg/i.d.
Description: Injected by intraveinous or intraduodenal means, the compounds of formula (I) are capable of opposing the bronchoconstriction provoked in the guinea-pig by the itraveinous injection of acetylcholine by the Konzett method.
By way of example, the following Table VII lists the results obtained by the administration of different compounds of formula (I)

[7] = test system: rat suffering from high blood pressure; experiment: Antihypertensive: return of systolic arterial pressure to normal in rats with high blood pressure; assay type: in vivo
Description: The compounds of formula (I), administered by oral means to a rat suffering from high blood pressure, are capable of lowering the systolic arteriel pressure.
By way of example, there is provided in the following Table IV the results obtained by administration of different compounds of formula (I).

volume of urine emitted = experiment: Diuretic: augmentation of urinary elimination; assay type: in vivo; conditions: 25 mg/Kg/p.o., mouse, 6 hours
Procedure: The compounds of formula (I), administered by oral means to the mouse, simultaneously with a volume of 1 ml. of an isotonic solution of sodium chloride per 25 g of the corporeal weight of the mouse, are capable of provoking an augmentation of the volume of urine emitted by reference to control animals, the volume being measured for 6 hours following administration.
By way of example, the following Table XI lists the results obtained by the administration of 25 mg/Kg/p.o. of different compounds of formula (I).

[8] = test system: isolated heart of a guinea-pig; experiment: Vasodilatatory: coronary flow of isolated heart; conditions: 1 μg/ml in perfusion liquid
Procedure: The compounds of formula (I) are capable of augmenting the flow of the coronary vessels of the isolated heart of a guinea-pig when said compounds are added in the perfusion liquid of said organ.
By way of example, there can be found in the following Table X, the percentage augmentation of the flow of the isolated heart of a guinea-pig by adding different compounds of formula (I) to the perfusion liquid, in a concentration of 1 μg/ml.

[9] = test system: ventricular fibrillations provoked by the inhalation of chloroform; experiment: Antiarythmic: protection against ventricular fibrillations provoked by inhalation of chloroform; assay type: in vivo; conditions: i.p., mouse
Description: Administered by intraperitoneal means, the compounds of formula (I) are capable of protecting the mouse against the ventricular fibrillations provoked by the inhalation of chloroform.

[10] = test system: gastric secretion measured after Shay ligature; experiment: Gastric antisecretory: reduction of gastric secretion after Shay ligature, rat; assay type: in vivo; conditions: 50 mg/Kg/i.d.
Procedure: Administered by intraduodenal means to a rat, the compounds of formula (I) are capable of reducing the gastric secretion measured after Shay ligature.
By way of example, the following Table V gives the results obtained by administration of 50 mg/Kg/i.d. of different compounds of formula (I).

O=C(CCn1c(CN2CCOCC2)nc2ccccc21)c1ccc(Cl)cc1 [72 359]
Percentage reduction of Shay ulcers [1]: 35% | Percentage mortality [2]: 0%

COc1ccc(C(=O)CCn2c(CN3CCCCC3)nc3ccccc32)cc1OC [72 377]
Percentage reduction of number of explorations in the escape enclosure [3]: 30% | Percentage reduction of Shay ulcers [1]: 55% | Percentage mortality [2]: 0%

CCN(CC)Cc1nc2ccccc2n1CCC(=O)c1ccc(Cl)cc1 [72 390]
Percentage reduction of sub-plantar oedema [4]: 60% | Percentage reduction of Shay ulcers [1]: 40% | Percentage mortality [2]: 0%

COc1ccc(C(=O)CCn2c(CN3CCOCC3)nc3ccccc32)cc1OC [72 391]
Percentage reduction of number of painful stretchings [5]: 60% | Percentage inhibition of bronchoconstriction [6]: 100% | Percentage reduction of number of explorations in the escape enclosure [3]: 50% | Percentage mortality [2]: 0%

COc1cc(C(=O)CCn2c(CN3CCCC3)nc3ccccc32)cc(OC)c1OC [72 414]
Percentage of rats with high blood pressure whose systolic arteriel pressure is returned to normal ([7]; 150 mg/Kg/p.o.): 75% | Percentage inhibition of bronchoconstriction [6]: 50%

Cc1ccc(C(=O)CCn2c(CN3CCOCC3)nc3ccccc32)c(C)c1 [72 447]
Percentage reduction of sub-plantar oedema [4]: 40% | Percentage inhibition of bronchoconstriction [6]: 50% | Percentage reduction of Shay ulcers [1]: 35% | Percentage augmentation of urinary elimination (volume of urine emitted): 70% | Percentage mortality [2]: 0%

CCCCOc1ccc(C(=O)CCn2c(CN3CCCCC3)nc3ccccc32)cc1 [72 464]
Percentage reduction of number of explorations in the escape enclosure [3]: 30% | Percentage mortality [2]: 0%

Cc1ccc(C(=O)CCn2c(CN3CCOCC3)nc3ccccc32)cc1 [72 478]
Percentage augmentations of flow of isolated heart of a guinea-pig [8]: 50% | Percentage mortality [2]: 0%

CN(C)Cc1nc2ccccc2n1CCC(=O)c1ccc(Cl)cc1 [72 479]
Percentage of rats with high blood pressure whose systolic arteriel pressure is returned to normal ([7]; 200 mg/Kg/p.o.): 50% | Percentage reduction of Shay ulcers [1]: 30% | Percentage augmentations of flow of isolated heart of a guinea-pig [8]: 80% | DE 50 [9]: 200 mg/Kg/i.p. | Percentage mortality [2]: 0%

O=C(CCn1c(CN2CCCCC2)nc2ccccc21)c1ccc(F)cc1 [72 487]
Percentage reduction of number of painful stretchings [5]: 80% | Percentage reductions in volume of gastric secretion [10]: 40% | Percentage inhibition of bronchoconstriction [6]: 60%

O=C(CCn1c(CN2CCCCCC2)nc2ccccc21)c1ccc(F)cc1 [72 488]
Percentage reduction of sub-plantar oedema [4]: 50% | Percentage reduction of Shay ulcers [1]: 25% | DE 50 [9]: 200 mg/Kg/i.p. | Percentage mortality [2]: 0%

COc1ccc(C(=O)CCn2c(CN(C)C)nc3ccccc32)cc1OC [72 490]
Percentage reduction of Shay ulcers [1]: 30% | Percentage augmentations of flow of isolated heart of a guinea-pig [8]: 140%

O=C(CCn1c(CN2CCCCC2)nc2ccccc21)c1ccccc1 [72 491]
Percentage reduction of number of painful stretchings [5]: 65% | Percentage of rats with high blood pressure whose systolic arteriel pressure is returned to normal ([7]; 200 mg/Kg/p.o.): 50% | Percentage mortality [2]: 0%

O=C(CCn1c(CN2CCCC2)nc2ccccc21)c1ccccc1 [72 493]
Percentage reductions in volume of gastric secretion [10]: 25%

O=C(CCn1c(CN2CCOCC2)nc2ccccc21)c1ccccc1 [72 494]
Percentage reductions in volume of gastric secretion [10]: 25% | Percentage reduction of sub-plantar oedema [4]: 40% | mortality ([2]; in vivo, po): 0%
